Data reported in the supplement of paper PMC11061612.

What was measured:
[1] = test system: LK-2 (Squamous Cell Lung Carcinoma); assay: Bliss excess, mean over the matrix (fraction); higher = more synergy
Summary of the method: (§1)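 Cell lines in DMEM/F12 or RPMI with 10% FBS were plated in 1536-well plates, held 24 hours at 37°C, 5% CO2, then given two-drug dose matrices for 72 hours (DMSO typically 0.2%). Viability was read by CellTiter-Glo 2.0 luminescence and scaled as inhibition from 0 (vehicle wells) to 1 (blank wells). Combination Emax is the second-highest inhibition in the matrix; Bliss excess is observed combination effect minus expected EA + EB − EA·EB, EA and EB being single-agent effects.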

[2] = test system: OPM-2 (Plasma Cell Myeloma); assay: as above
Summary of the method: as §1

[3] = test system: OVMIU (Ovarian Carcinoma); assay: as above
Summary of the method: as §1

SK-MEL-2 (Melanoma) [4] = assay: as above
Summary of the method: as §1

[5] = test system: CAL-62 (Thyroid Gland Carcinoma); assay: combination Emax (second highest fraction inhibited in the dose matrix, 72 h); higher = more inhibition; extreme values may be limits of the assay
Summary of the method: as §1

[6] = test system: HSC-39 (Gastric Carcinoma); assay: as above
Summary of the method: as §1

IST-MES1 (Mesothelioma) = assay: as above
Summary of the method: as §1

[7] = test system: LK-2 (Squamous Cell Lung Carcinoma); assay: as above
Summary of the method: as §1

[8] = test system: MFE-280 (Endometrial Carcinoma); assay: as above
Summary of the method: as §1

NB12 (Neuroblastoma) = assay: as above
Summary of the method: as §1

[9] = test system: NCI-H2342 (Lung Adenocarcinoma); assay: as above
Summary of the method: as §1

[10] = test system: OVMIU (Ovarian Carcinoma); assay: as above
Summary of the method: as §1

[11] = test system: PANC-03-27 (Pancreatic Carcinoma); assay: as above
Summary of the method: as §1

[12] = test system: RCM-1 (Colorectal Carcinoma); assay: as above
Summary of the method: as §1

[13] = test system: RKN (Other Solid Carcinomas); assay: as above
Summary of the method: as §1

SF539 (Glioblastoma) = assay: as above
Summary of the method: as §1

[14] = test system: SHP-77 (Small Cell Lung Carcinoma); assay: as above
Summary of the method: as §1

SK-MEL-2 (Melanoma) [15] = assay: as above
Summary of the method: as §1

[16] = test system: SK-PN-DW (Other Solid Carcinomas); assay: as above
Summary of the method: as §1

[17] = test system: TE-8 (Esophageal Squamous Cell Carcinoma); assay: as above
Summary of the method: as §1
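Throughout, for Bliss excess, mean over the matrix: after 72 h of two-drug dosing.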

Row | Structure (SMILES) | Bliss excess [1] | Bliss excess [2] | Bliss excess [3] | Bliss excess (SK-MEL-2 (Melanoma) [4]) | combination Emax [5] | combination Emax [6] | combination Emax (IST-MES1 (Mesothelioma)) | combination Emax [7] | combination Emax [8] | combination Emax (NB12 (Neuroblastoma)) | combination Emax [9] | combination Emax [10] | combination Emax [11] | combination Emax [12] | combination Emax [13] | combination Emax (SF539 (Glioblastoma)) | combination Emax [14] | combination Emax (SK-MEL-2 (Melanoma) [15]) | combination Emax [16] | combination Emax [17]
1 | C[C@@H](Nc1cc(F)cc(F)c1)c1cc(C(=O)N(C)C)cc2c(=O)cc(N3CCOCC3)oc12 [AZD8186] + CC(=O)c1c(C)c2cnc(Nc3ccc(N4CCNCC4)cn3)nc2n(C2CCCC2)c1=O [Palbociclib] (first compound max 10 µM, 7x7, partner max 10 µM) | 0.0023 | 0.0338 | -0.0439 | -0.0346 | 0.36 | 0.813 | 0.454 | 0.237 | 0.518 | 0.403 | 0.337 | 0.497 | 0.513 | 0.335 | 0.292 | 0.412 | 0.337 | 0 | 0.644 | 0.502
2 | C[C@@H](Oc1cc(-c2cnn(C3CCNCC3)c2)cnc1N)c1c(Cl)ccc(F)c1Cl [Crizotinib] + CC1=C(C(=CC=C1)Cl)NC(=O)C2=CN=C(S2)NC3=CC(=NC(=N3)C)N4CCN(CC4)CCO [Dasatinib] (first compound max 10 µM, 7x7, partner max 2 µM) | -0.0103 | 0 | 0.0041 | -0.0362 | 0.677 | 1 | 0.938 | 0.765 | 0.661 | 0.766 | 0.37 | 0.933 | 0.887 | 0.61 | 0.567 | 0.886 | 0.259 | 0.0969 | 0.763 | 0.838
3 | C[C@@H](Oc1cc(-c2cnn(C3CCNCC3)c2)cnc1N)c1c(Cl)ccc(F)c1Cl [Crizotinib] + Cn1cnc2c(F)c(Nc3ccc(Br)cc3Cl)c(C(=O)NOCCO)cc21 [Selumetinib] (first compound max 10 µM, 7x7, partner max 10 µM) | 0.011 | -0.0463 | -0.0302 | 0.0382 | 0.564 | 0.975 | 0.864 | 0.749 | 0.28 | 0.79 | 0.285 | 0.498 | 0.543 | 0.761 | 0.48 | 0.764 | 0.411 | 0.881 | 0.739 | 0.631
4 | CS(=O)(=O)CCNCc1ccc(-c2ccc3ncnc(Nc4ccc(OCc5cccc(F)c5)c(Cl)c4)c3c2)o1 [Lapatinib] + Cn1cnc2c(F)c(Nc3ccc(Br)cc3Cl)c(C(=O)NOCCO)cc21 [Selumetinib] (first compound max 10 µM, 7x7, partner max 10 µM) | -0.0131 | -0.0294 | -0.102 | 0.0062 | 0.477 | 0.99 | 0.55 | 0.485 | 0.274 | 0.354 | 0.257 | 0.671 | 0.812 | 0.754 | 0.369 | 0.601 | 0.387 | 0.793 | 0.556 | 0.521
5 | O=C(c1cc(Cc2n[nH]c(=O)c3ccccc23)ccc1F)N1CCN(C(=O)C2CC2)CC1 [Olaparib] + CC1(C)CCC(CN2CCN(c3ccc(C(=O)NS(=O)(=O)c4ccc(NCC5CCOCC5)c([N+](=O)[O-])c4)c(Oc4cnc5[nH]ccc5c4)c3)CC2)=C(c2ccc(Cl)cc2)C1 [Venetoclax] (first compound max 10 µM, 7x7, partner max 1 µM) | 0.0039 | 0.0309 | -0.067 | 0.0044 | 0.0638 | 0.205 | 0.283 | 0.347 | 0.169 | 0.922 | 0.158 | 0.114 | 0.12 | 0.0674 | 0.119 | 0.358 | 0.258 | 0.162 | 0.301 | 0.137
6 | O=C(c1cc(Cc2n[nH]c(=O)c3ccccc23)ccc1F)N1CCN(C(=O)C2CC2)CC1 [Olaparib] + CN(CC[C@H](CSC1=CC=CC=C1)NC2=C(C=C(C=C2)S(=O)(=O)NC(=O)C3=CC=C(C=C3)N4CCC(CC4)[C@H](C5=CC=CC=C5C6=CC=C(C=C6)Cl)O)S(=O)(=O)C(F)(F)F)CCO [AZD4320] (first compound max 10 µM, 7x7, partner max 1 µM) | 0.0748 | 0.0334 | -0.0979 | -0.0397 | 0.16 | 0.268 | 0.211 | 0.573 | 0.598 | 0.997 | 0.178 | 0.22 | 0.266 | 0.17 | 0.149 | 0.463 | 0.315 | 0.234 | 0.378 | 0.175
7 | O=C(c1cc(Cc2n[nH]c(=O)c3ccccc23)ccc1F)N1CCN(C(=O)C2CC2)CC1 [Olaparib] + COc1nnc2ccc(N3CCC(c4ccc(OCCN5CCN(C)C(=O)[C@H]5C)cc4)CC3)nn12 [AZD5153] (first compound max 10 µM, 7x7, partner max 1 µM) | -0.0571 | 0.0122 | -0.0521 | -0.0421 | 0.69 | 0.762 | 0.611 | 0.372 | 0.397 | 0.782 | 0.289 | 0.603 | 0.196 | 0.522 | 0.412 | 0.642 | 0.3 | 0.53 | 0.698 | 0.393
8 | O=C(c1cc(Cc2n[nH]c(=O)c3ccccc23)ccc1F)N1CCN(C(=O)C2CC2)CC1 [Olaparib] + Cc1c2c(nn1C)CSCc1cc(n(C)n1)CSc1cc(c3ccccc3c1)OCCCc1c(C(=O)O)n(C)c3c-2c(Cl)ccc13 [AZD5991] (first compound max 10 µM, 7x7, partner max 1 µM) | 0.041 | 0.0251 | -0.0646 | 0.0379 | 0.0932 | 1 | 0.242 | 0.301 | 0.181 | 0.379 | 0.239 | 0.104 | 0.128 | 0.0639 | 0.161 | 0.46 | 0.288 | 0.902 | 0.781 | 0.184
9 | N#Cc1cnc(Nc2cc(NC[C@H]3CNCCO3)c(C(F)(F)F)cn2)cn1 [SRA737] + C=CCn1c(=O)c2cnc(Nc3ccc(N4CCN(C)CC4)cc3)nc2n1-c1cccc(C(C)(C)O)n1 [AZD1775] (first compound max 10 µM, partner max 1 µM) | 0.115 | 0.106 | 0.0717 | 0.098 | 0.727 | 1 | 0.442 | 0.953 | 0.566 | 0.698 | 0.621 | 0.669 | 0.858 | 0.631 | 0.608 | 0.986 | 0.722 | 0.772 | 0.913 | 0.777
10 | N#Cc1cnc(Nc2cc(NC[C@H]3CNCCO3)c(C(F)(F)F)cn2)cn1 [SRA737] + CCc1c2c(nc3ccc(O)cc13)-c1cc3c(c(=O)n1C2)COC(=O)[C@]3(O)CC [SN-38] (first compound max 10 µM, 7x7, partner max 0.3 µM) | 0.154 | 0.0183 | -0.0769 | 0.0931 | 0.865 | 1 | 0.759 | 0.906 | 0.88 | 0.705 | 0.74 | 0.404 | 0.844 | 0.768 | 0.858 | 0.971 | 0.912 | 0.693 | 0.927 | 0.838
11 | N#Cc1cnc(Nc2cc(NC[C@H]3CNCCO3)c(C(F)(F)F)cn2)cn1 [SRA737] + Nc1ccn([C@@H]2O[C@H](CO)[C@@H](O)C2(F)F)c(=O)n1 [Gemcitabine] (first compound max 10 µM, 7x7, partner max 0.3 µM) | 0.141 | 0.0238 | -0.0588 | 0.0686 | 0.799 | 1 | 0.857 | 0.918 | 0.815 | 0.742 | 0.841 | 0.456 | 0.729 | 0.688 | 0.812 | 0.947 | 0.907 | 0.504 | 0.933 | 0.749
12 | N#Cc1cnc(Nc2cc(NC[C@H]3CNCCO3)c(C(F)(F)F)cn2)cn1 [SRA737] + O=c1[nH]cc(F)c(=O)[nH]1 [5-Fluorouracil] (first compound max 10 µM, 7x7, partner max 20 µM) | 0.0756 | 0.006 | -0.0569 | -0.025 | 0.371 | 1 | 0.288 | 0.686 | 0.252 | 0.173 | 0.1 | 0.413 | 0.725 | 0.578 | 0.344 | 0.915 | 0.786 | 0.113 | 0.956 | 0.413
13 | Cc1nc(-c2cn3c(n2)-c2ccc(-c4cnn(C(C)(C)C(N)=O)c4)cc2OCC3)n(C(C)C)n1 [Taselisib] + O=C(Nc1ccc2[nH]nc(-c3ccncc3)c2c1)[C@@H]1CCN(CC(=O)N2CCN(c3ccc(-c4ncccn4)cc3)CC2)C1 [SCH772984] (first compound max 10 µM, 7x7, partner max 5 µM) | 0.0371 | 0.0779 | 0.0699 | 0.136 | 0.637 | 0.985 | 0.516 | 0.613 | 0.839 | 0.684 | 0.431 | 0.904 | 0.885 | 0.803 | 0.57 | 0.934 | 0.387 | 0.968 | 0.609 | 0.758
